Consider three compounds from patent US20130189690A1, “SCN5A Splice Variants for Use in Methods Relating to Sudden Cardiac Death and Need for Implanted Cardiac Defibrillators” (The United States Government as represented by the …, priority 2011, published 2013).

For series [1], the system named is NF-κB subunits p50 and p65 on the scn5a promoter. Put plainly: Chromatin immunoprecipitation (ChIP) assay in H9c2 cells. It counts as cell-based, rat. On the procedure:
Formaldehyde cross-linking and chromatin immunoprecipitation was performed as described in manufactory's manual (ChIP-IT™ kit, Activemotif). Briefly, proteins were crosslinked with chromatin using 1% formaldehyde in H9c2 cells with or without treatment. The cells were subsequently sonicated in lysis buffer, and an aliquot of the lysate was used in a PCR reaction. The remaining lysate was cleared with protein G beads. One half of the cleared lysate was incubated with p50 or p65 antibody, while the other half was used as a negative control without the antibody. After reversing the cross-linking, the immuno-complex was digested with proteinase K, and the DNA was purified. DNA was analyzed by PCR with the PicoMax Polymerase (Stratagene, La Jolla, Calif.) and primers specific to the APS3 promoter region.

Series [2] concerns NF-κB binding to the scn5a promoter. The series can be described thus: Electrophoretic mobility shift assay with H9c2 nuclear extracts. The format is cell-based, rat. As to conditions: for effect of NF-κB inhibitor on NF-κB binding to scn5a promoter probe: CAPE 10 μM, H9c2, H2O2. An excerpt: Approximately 5×10^6 cells were scraped for nuclear protein extraction by nuclear extract kit (Activemotif, Carlsbad, Calif.). A double-stranded oligonucleotide containing the consensus-binding sequence (bold) for […] ID NO. 657)) and NF-κB mutant sequence ([NT] ID NO. 658)) from scn5a promoter were used as probes to assay for binding activity of the nuclear extracts. Protein-DNA complexes were detected using biotin end-labeled double-stranded DNA probes prepared by annealing complementary oligonucleotides. Oligonucleotides were labeled in a reaction using terminal deoxynucleotide transferase and biotin-N4-CTP (Pierce, Rockford, Ill.) following the biotin 3' end DNA labeling kit manual. The binding reaction was performed using the LightShift kit (Pierce). […] Following electrophoresis, the DNA-protein complexes were transferred onto nylon membranes and detected using chemiluminescence. TNF-α activated H9c2 cell nuclear extract (5 μg) was used as positive control. The reaction products were separated on a 6% retardation gel.
(In general: A gel shift assay detects complexes by their altered migration in electrophoresis.)

Series [3] has as its system cardiac sodium channel (scn5a) mRNA. The series can be described thus: scn5a mRNA abundance by quantitative real-time RT-PCR in neonatal cardiomyocytes. It counts as cell-based, rat. An excerpt:
(§1) The rat embryonic cardiomyocyte cell line, H9c2 (ATCC cat #CRL-1446), or acutely isolated neonatal rat heart cardiomyocytes were used. Rat neonatal ventricular cells were isolated from 3-day-old Sprague-Dawley rats (Charles River Laboratories Wilmington, Mass.) using a kit and following the manufacturer's instructions (Worthington Biochemical Corp. Lakewood, N.J.). Cells cultured in Dulbecco's modified Eagle's medium (DMEM; ATCC, Manassas, Va.) with 10% fetal calf serum (ATCC) under standard tissue culture conditions at 37° C. to 70-80% confluence were exposed to AngII (Sigma, St. Louis, Mo.) or H2O2 (Sigma) in serum free culture medium (SFM) for a total of 48 h in triplicate in 24 well plates. Experiments were repeated three times. After dissociation with 0.125% trypsin-EDTA, 20 μL of 0.4% Trypan-blue (Sigma, St. Louis, Mo.) was added to each well, and a Trypan-blue exclusion viability assay was performed. The use of rats conforms with the Guide for the Care and Use of Laboratory Animals published by the US National Institutes of Health (NIH Publication No. 85-23, revised 1996).
(§2) To determine the abundance of cardiac sodium channel (scn5a) mRNA under the various conditions, quantitative real-time RT-PCR was used. […] PCR products were analyzed by relative standard curve methods β-Actin was used as a reference when making quantitative comparison.
For orientation: Quantitative PCR measures a nucleic acid by following its amplification.

Series [4] has as its system cardiac Na+ channel current. Put plainly: Whole-cell patch-clamp Na+ current in H9c2 cells. The format is cell-based, rat. As to conditions: H9c2, 20 μM H2O2 for 48 h, voltage step to −10 mV. On the procedure: Three hours prior to the start of the patch-clamp experiments, H9c2 cells were trypsinized and plated on treated plastic coverslips. H9c2 cells were treated with or without H2O2 as indicated. Glass pipettes were pulled on a Sutter Model P-97 horizontal puller to a resistance of 0.5 to 1.5 MΩ. The glass pipettes were filled with a solution of (in mM) CsCl 60, Cesium Aspartate 80, EGTA sodium 11, HEPES 10, Na2ATP 5 and pH 7.2 with CsOH. The bath solution consisted of (in mM) Na 30, […] chloride 100, CsCl 5, CaCl2 2, MgCl2 1.2, HEPES 10, Glucose 5 and pH 7.4 with NaOH. Once a seal was established, a small amount of suction was applied to obtain the whole cell configuration. From a holding potential of −100 mV, peak currents obtained at −10 mV were used for comparison. Cells were tested at 25° C. Data were sampled at 10 kHz and later filtered at 5 kHz for analysis. Currents were recorded and analyzed with an Axopatch 200B amplifier, Axon Digidata 1230A A/D converter and pClamp software (Molecular Devices Corporation, Sunnyvale, Calif.).
For orientation: Patch clamp records ionic current or voltage across a cell membrane.

For series [5], the system named is H9c2 cardiomyocytes. The series can be described thus: Trypan-blue exclusion cell viability assay. It counts as cell-based. On the procedure: To determine appropriate concentrations of these agents in future experiments, rat H9c2 cardiomyocytes were treated with escalating concentrations of AngII and H2O2, and the dose-dependent cell viability was determined. H9c2 cardiomyocytes were tolerant of a wide range of AngII concentrations from 1-500 nM in serum free medium (FIG. 14A). On the other hand, higher doses of H2O2 induced cell death starting at concentrations of 50 μM (FIG. 14B). […] Exposures of 48 h were used to allow sufficient time for transcriptional effects on the Na^+ current.
as §1, with “After dissociation with 0.125% trypsin-EDTA, 20 μL of 0.4% Trypan-blue (Sigma, St. Louis, Mo.) was added to each well, and a Trypan-blue exclusion viability assay was performed. The use of rats conforms with the Guide for the Care and Use of Laboratory Animals published by the US National Institutes of Health (NIH Publication No. 85-23, revised 1996).” left out

The subject of series [6] is scn5a promoter. Put plainly: scn5a promoter-reporter (dual luciferase) assay in H9c2 cells. The format is cell-based, rat. On the procedure: The scn5a promoter region has previously been defined (Shang, L. L. & Dudley, S. C., Jr. (2005) J. Biol. Chem. 280, 933-940). For these experiments, a new promoter construct that contained the NF-κB consensus binding site was used to test the effect of treatments on scn5a transcription. This construct, pGL3-APS3, consisted of a 937 bp fragment starting from exon 1C to +32 base pairs relative to the start codon located on exon 2 of mouse scn5a gene.
H9c2 cardiomyocytes were plated in each well of 24-well plates at a density of 2.5×10^4 cells in a final volume of 1 mL of culture medium, allowed to attach overnight, and expand to 70%-80% confluence. Transfection of 0.3 μg of the promoter-reporter construct and 0.013 μg of a plasmid containing the herpes simplex virus thymidine kinase (HSV-TK) promoter driving expression of a synthetic Renilla luciferase (phRL-TK; Promega, Madison, […].) was carried out with 0.9 μL of Fugene6 chemical transfection reagents (Roche, Indianapolis, Ind.) following the manufacturer's instructions. […] Light emission was quantified in a Veritas microplate luminometer using Veritas-version 1.4.0 software (Tuener Biosystems, Sunnyvale, Calif.). […] Four separate transfection sessions were analyzed, and at each session, transfections were performed in triplicate. Three dual luciferase readings were taken for each transfection experiment. […]

The test system of series [7] is cardiac sodium channel (scn5a) mRNA. The series can be described thus: scn5a mRNA abundance by quantitative real-time RT-PCR in H9c2 cells. The format is cell-based, rat.
Source text: as §1, §2

Regarding `O=C(/C=C/c1ccc(O)c(O)c1)OCCc1ccccc1` [CAPE, caffeic acid phenethyl ester], the “effect of NF-κB inhibitor on binding of p50 and p65 to the channel promoter” value in series [1] (H9c2, CAPE) was “could prevent biding of both subunits”. The “effect of NF-κB inhibitor on NF-κB binding to scn5a promoter probe” value in series [2] is listed as “prevented binding in response to H2O2”; in series [2] (listed as caffeic acid phenethyl ester), “blocked”.

For the compound `OO` [H2O2], the “reduction in Na+ channel mRNA” value in series [3] (isolated neonatal rat myocytes, 40 nM H2O2, 48 h) is reported as 45.4%; in series [7] (H9c2 cells, 20 μmol/L H2O2, 48 h), 46.9%. Moreover, in series [4], the “decrease in peak Na+ current” value worked out at 46%. Moreover, the “cell death at 20 μM H2O2” value in series [5] (20 μM H2O2, 48 h) is reported as “no statistically significant increase in cell death”. The “H2O2 concentration at which cell death starts” value in series [5] (48 h) was no less than 50 µM. Also, the “NF-κB subunit binding on the cardiac Na+ channel promoter” value in series [1] (H9c2, AngII or H2O2 treatment) is reported as “formation of the complete p50-p65 NF-κB heterodimer”. For the same compound, in series [6] (APS3-NF-κBm, H9c2, AngII or H2O2), the “change in promoter activity of construct with mutated NF-κB binding site” value was “no significant change in activity”. Further, the “depression of scn5a Na+ channel promoter activity” value in series [6] (APS3 construct with intact NF-κB site, H9c2, 20 μM H2O2, 48 h) was determined as 42.3%. Also, the “NF-κB binding activity to scn5a promoter probe” value in series [2] (H9c2 nuclear extracts, 48 h AngII or H2O2) is reported as “increased”.

As for catalase, the “effect of catalase on AngII-mediated downregulation of Na+ channel mRNA” value is on record as “prevented” in series [3] (neonatal cardiomyocytes, AngII 2 nM and PEG-catalase 250 U/mL, 48 h); “prevented” in series [7] (H9c2, AngII 100 nM and PEG-catalase 250 U/mL, 48 h).
